The text below walks through data of US20080287405A1, “Compositions and Methods Relating to Protein Kinase Inhibitors” (priority 2004, published 2008).

The subject of one test is bleomycin-injured mice. The test is described as follows: Murine model of bleomycin-induced pulmonary fibrosis (lung collagen, histology). The class given is in vivo. As to conditions: 6 mg/kg IP or oral gavage for 21 days. The source says:
Mice were given intratracheal bleomycin (BL) or saline (control). […] A) Lungs were harvested on day 14 following bleomycin injury and total lung collagen determined as described in “Methods”. […] B) Representative histopathology (hematoxylin and eosin staining, top panels; Masson's trichrome blue staining for collagen, bottom panels) of the lungs of mice intra-tracheally instilled with saline (control) or bleomycin (BL). […] Lungs were examined at day 14 following bleomycin injury.
Tissue sections were stained (H&E, mag 100×) 21 days following bleomycin and 14 days after treatment with NL-71-101.
B6129F2/J mice were purchased from Jackson Laboratories, Bar Harbor, Me., and housed under specific pathogen free conditions in enclosed filter top cages. Clean food and water was given ad libitum. The mice were handled and maintained using microisolator techniques with daily veterinarian monitoring. […]
Mice were euthanized by CO2 asphyxiation and perfused via the heart with 5 ml of normal saline. […] Following centrifugation, the pellet was resuspended in 1 ml of alkali reagent, vortexed to release the dye into solution, and 100 μl transferred to a microplate and absorbance measured at 540 nm. Values for experimental samples were calculated based on a standard curve of known concentrations of purified rat tail collagen. […]

For test [1], the system named is α-SMA. As to the kind of experiment: α-SMA expression in lung fibroblasts isolated from drug-treated bleomycin-injured mice (Western). The class given is in vivo. Particulars: 6 mg/kg IP or oral gavage for 21 days. The source says: C57BL/6J mice were given intratracheal (IT) saline or bleomycin on day 1. […] Fibroblasts were isolated from lung explants on day 14 and expanded in in vitro cell culture. Cells were lysed in RIPA buffer at passage 2 and 90% confluency. Cell lysates were subjected to sodium dodecyl sulfate polyacrylamide gel electrophoresis and immunoblotted with antibodies against α-SMA (a marker of myofibroblast differentiation), phospho-S^473 Akt, and phospho-Y^397 FAK.
Fibroblasts were isolated from lung explants on day 14 and expanded in in vitro cell culture, initially in the presence of 10% fetal bovine serum and then in the absence of serum for 24 h. Cell lysates were obtained and subjected to SDS-PAGE and immunoblotted with antibodies against the proteins indicated.
Mice were treated with Gleevec by IP injection (6 mg/kg) or oral gavage (6 mg/kg) for 21 days. Fibroblasts were isolated from lung explants and cell lysates subjected to SDS-PAGE and immunoblotted for α-SMA. Blots were stripped and re-probed for α-tubulin. Additionally, the effects of Gleevec on pro-fibrotic signaling of fibroblasts by TGF-α1. […]
To determine the result of systemic administration of AG1879 in stable modulation of signaling/phenotype of fibroblasts and myofibroblasts in vivo, fibroblasts isolated from lungs of bleomycin injured mice were analyzed. […]

Test [2] relates to α-SMA. The test is described as follows: α-SMA expression in normal human lung fibroblasts (IMR-90) ± TGF (Western). The class given is cell-based. How it is done: (§1) Mice were treated with Gleevec by IP injection (6 mg/kg) or oral gavage (6 mg/kg) for 21 days. Fibroblasts were isolated from lung explants and cell lysates subjected to SDS-PAGE and immunoblotted for α-SMA. Blots were stripped and re-probed for α-tubulin. Additionally, the effects of Gleevec on pro-fibrotic signaling of fibroblasts by TGF-α1. Normal human lung fibroblasts (IMR-90) were stimulated ±TGF-â1 (2 ng/ml) Gleevec at the doses indicated for 24 h. Cell lysates were then subjected to SDS-PAGE and immunoblotted for specific antibodies to the proteins shown.
The present invention is not limited to a particular mechanism. Indeed, an understanding of the mechanism is not necessary to practice the present invention. […] Furthermore, these observations emphasize the importance of defining the modulation of fibroblast phenotypes/signaling both in vitro and in vivo.

The test system of test [3] is PKB/Akt. The test is described as follows: TGF-induced PKB/Akt phosphorylation in normal human lung fibroblasts (IMR-90). The class given is cell-based. Particulars: IMR-90, TGF 2 ng/ml, 24 h. The protocol: as §1
(§2) The present invention is not limited to a particular mechanism. Indeed, an understanding of the mechanism is not necessary to practice the present invention.

Test [4] deals with FAK. The test is described as follows: TGF-induced FAK phosphorylation in normal human lung fibroblasts (IMR-90). The class given is cell-based. As to conditions: IMR-90, TGF 2 ng/ml, 24 h. The protocol: as §1, §2
Another test has as its system ERK-1/2 MAPK. The test is described as follows: Baseline ERK-1/2 MAPK phosphorylation in normal human lung fibroblasts (IMR-90). As to conditions: IMR-90, 24 h, doses indicated in FIG. 9. The class given is cell-based. How it is done:
as §1, §2

In test [5] the test system is PKB/Akt. As to the kind of experiment: Constitutive PKB/Akt phosphorylation in IPF fibroblasts (Western immunoblot). The class given is cell-based, human. As to conditions: 16 h prior to cell lysis. The text has this:
(§3) Cell lysates were then subjected to SDS-PAGE and immunoblotted with specific antibodies against phospho-S^473 Akt and phospho-Y^397 FAK; blots were stripped and re-probed for total Akt and FAK, respectively.
(§4) Research protocols involving human subjects received prior approval by the Institutional Review Board at the University of Michigan. […] Fibroblasts were also isolated from normal-appearing lung tissue sections surgically removed from patients undergoing evaluation for suspected lung cancer. Cells were cultured in medium consisting of Dulbecco's modified Eagle's medium (DMEM; GIBCO, Grand Island, N.Y.) supplemented with 10% fetal bovine serum (FBS; Sigma, St. Louis, Mo.), 100 U/ml penicillin/streptomycin (Sigma, St. Louis Mo.), and fungizone (GIBCO, Grand Island, N.Y.); medium was changed every two days. Passage 3-5 fibroblasts were plated on 60 mm cell culture dishes at a density of 5×10^5 cells/dish and incubated at 37° C. in 5% CO2-95% air. When cells reached 80% confluence, they were growth-arrested for 48 hours in DMEM with 0.01% FBS prior to treatment with/without TGF-β1.
(§5) Porcine-derived TGF-β1 was obtained from R&D Systems, Minneapolis, Minn. All other cell culture reagents were from Sigma, St Louis, Mo. […] Drugs were initially solubilized in DMSO to make a 30 mM “stock” concentration. […]
(In general: A western blot detects proteins with antibodies after separation by electrophoresis.)

The test system of test [6] is PKB/Akt. As to the kind of experiment: TGF-β1-induced PKB/Akt phosphorylation in normal fibroblasts (Western immunoblot). It is filed as cell-based, human. As to conditions: TGF-β1 2 ng/ml, 10 μM drug co-treated, 16 h.
From the text: as §3, §4, §5

For test [7], the system named is FAK. As to the kind of experiment: TGF-β1-induced FAK phosphorylation in normal fibroblasts (Western immunoblot). It is filed as cell-based, human. As to conditions: TGF-β1 2 ng/ml, 10 μM drug co-treated, 16 h.
From the text: as §3, §4, §5

SMILES strings stand for the structures. Counter-ions that a name gives are not always drawn.

Turning to `Cc1ccc(NC(=O)c2ccc(CN3CCN(C)CC3)cc2)cc1Nc1nccc(-c2cccnc2)n1` [Gleevec, imatinib mesylate], in the test with bleomycin-injured mice, the “efficacy as an anti-fibrotic agent” value is given as “not to be effective”. Moreover, the “expression of α-SMA in lung fibroblasts cultured from treated mice” value in the test on α-SMA [1] is on record as “enhanced expression”. In the test with α-SMA [2] (IMR-90, 24 h, no TGF), the “baseline α-SMA expression” value is reported as “modest reductions”. Besides, in the test on α-SMA [2] (IMR-90, TGF 2 ng/ml, 24 h), the “TGF-α1-induced α-SMA expression” value is reported as “does not inhibit”. In addition, in the test with PKB/Akt [3], the “TGF-α1-induced phosphorylation/activation of PKB/Akt” value is reported as “promoted/enhanced”. Further, the “TGF-α1-induced phosphorylation/activation of FAK” value in the test on FAK [4] is “promoted/enhanced”. In the test on ERK-1/2 MAPK, the “baseline phosphorylation of ERK-1/2 MAPK” value is listed as “dose-dependently enhanced”.

For `Nc1ncnc2c1cnn2-c1ccccc1` [c/AG, 4-Amino-7-phenylpyrazol[3,4-d]pyramidine], the “inhibition of constitutive PKB/Akt phosphorylation at 10 μM” value with PKB/Akt [5] is recorded as “no effect”. Further, in the test on PKB/Akt [6], the “inhibition of TGF-β1-induced PKB/Akt phosphorylation” value is “no effect”. The “inhibition of TGF-β1-induced FAK phosphorylation” value in the test on FAK [7] was “no effect”.
